Data published in US8389526B2, “3-heteroarylmethyl-imidazo[1,2-b]pyridazin-6-yl derivatives” (Novartis AG, priority 2009, dated 2013).

What was measured:
[1] = target: T1, c-Met receptor tyrosine kinase, GST-c-Met(969-1390) (Homo sapiens, UniProt P08581); test: EPK c-Met profiling assay (LanthaScreen TR-FRET kinase assay); type: biochemical; settings: 2 μM ATP, 0.3 nM enzyme, 60 minutes at room temperature
T1 construct: made in house
Procedure: A number of compounds of the present invention were assayed in an antibody based kinase phosphorylation assay as follows.
Epk c-Met Profiling Assay:
The EPK kinase assay for c-Met receptor tyrosine kinase was developed, using the purified recombinant GST-fusion protein, containing the cytoplasmic domain of the enzyme. GST-c-Met(969-1390) was purified by affinity chromatography.
The kinase assay is based on the LanthaScreen™ technology. LanthaScreen™ is the detection of Time-Resolved Fluorescence Resonance Energy Transfer (TR-FRET) using lanthanide chelates to measure interactions between various binding partners. In a TR-FRET kinase assay, a long-lifetime lanthanide donor species is conjugated to an antibody that specifically binds to a phosphorylated product of a kinase reaction that is labeled with a suitable acceptor fluorophore. This antibody-mediated interaction brings the lanthanide donor and the acceptor into proximity such that resonance energy transfer can take place, resulting in a detectible increase in the FRET signal.
The kinase reactions were performed in 384 well microtiter plates in a total reaction volume of 9.05 μL. The assay plates were prepared with 0.05 μL per well of test compound in the appropriate test concentration, as described under “preparation of compound dilutions”. The reactions were started by combining 4.5 μL of ATP solution with 4.5 μL of enzyme-substrate mix (consisting of kinase and substrate). The final concentrations in the kinase reactions were 35 mM Tris/HCl, 1 mM DTT, 0.025% Tween20, 10 μM sodium orthovanadate, 0.25% BSA, 0.6% DMSO, 10 mM MgCl2, 3 mM MnCl2, 2 μM ATP, 50 nM Fluorescein-PolyEAY, and 0.3 nM enzyme.
The reactions were incubated for 60 minutes at room temperature and stopped by adding 4.5 μL of stop buffer (50 mM EDTA, 0.04% NP40, 20 mM Tris/HCl).
Subsequently 4.5 μL of detection mix (50 mM Tris/HCl, 2 mM DTT, 0.05% Tween20, 20 μM sodium orthovanadate, 1% BSA, 1.72 μg/mL Tb-PY20 antibody) were added to the stopped reactions. After 30 minutes incubation at room temperature, the plates were measured in a BMG Pherastar fluorescence reader. The effect of compound on the enzymatic activity was in all assays obtained from the linear progress curves and determined from one reading (end point measurement).
Preparation of Compound Dilutions
Test compounds were dissolved in DMSO (10 mM) and transferred into 1.4 mL flat bottom or V-shaped Matrix tubes carrying a unique 2D matrix. The stock solutions were stored at −20° C. if not used immediately. For the test procedure the vials were defrosted and identified by a scanner whereby a working sheet was generated that guided the subsequent working steps.
Compound dilutions were made in 96 well plates. This format enabled the assay of maximally 40 individual test compounds at 8 concentrations (single points) including 4 reference compounds. The dilution protocol included the production of “pre-dilution plates”, “master plates” and “assay plates”.
Pre-dilution plates: 96 polypropylene well plates were used as pre-dilution plates. A total of 4 pre-dilution plates were prepared including 10 test compounds each on the plate positions A1-A10, one standard compound at A11 and one DMSO control at A12. All dilution steps were done on a HamiltonSTAR robot.
Master plates: 100 μL of individual compound dilutions including standard compound and controls of the 4 “pre-dilution plates” were transferred into a 384 “master plate” including the following concentrations 1′820, 564, 182, 54.6, 18.2, 5.46, 1.82 and 0.546 μM, respectively in 90% of DMSO.
Assay plates: Identical “assay plates” were then prepared by pipetting 50 nL each of compound dilutions of the “master plates” into 384-well “assay plates” by means of a HummingBird 384-channel dispenser. These plates were used directly for the assay which was performed in a total volume of 9.05 μL. […]

[2] = test system: MET-amplified gastric cancer cell line GTL-16; test: GTL-16 proliferation assay (MTS); type: cell-based; settings: Homo sapiens, GTL-16 cells, 72 h incubation
Procedure: (§1) C-Met Dependent Cellular Assays
(§2) A number of compounds of the present invention were assayed in a c-Met dependent proliferation and phosphorylation assay as follows.
GTL-16 proliferation assay: the MET-amplified gastric cancer cell line GTL-16 was grown under standard cell culture conditions in DMEM [Dulbecco's Modified Eagle Medium] (high glucose) supplemented with 10% heat-inactivated fetal calf serum and 2 mM L-glutamine. For proliferation assays, cells were seeded at 3000 per well in 96-well-plates. 24 h later, a 10-point dilution series of each compound (3-fold steps, ranging from […]) was prepared in DMSO. Compound were then diluted 1000-fold in growth media in two steps and added to cells in triplicates, resulting in a final volume of […] per well and maximal final compound concentrations of […]. A DMSO-only control was included. Cells were incubated for 72 h and the amount of viable cells was then measured by adding […] of MTS reagent (CellTiter 96® AQueous Non-Radioactive Cell Proliferation Assay, Promega), further incubation for 30′, and reading the optical density at 490 nm.

c-Met = target: T2, c-Met (Homo sapiens, UniProt P08581); test: GTL-16 c-Met autophosphorylation measured by AlphaScreen detection; type: cell-based; settings: GTL-16 cells, 1 h incubation, AlphaScreen p-c-Met; read-out: GTL-16 IC50 c-Met phosphorylation
T2 construct: adapted to measure the phosphorylation of endogenous cellular proteins in cell lysates; endogenous in cells; host or cells: GTL-16
T2 sequence (P08581 25-1390): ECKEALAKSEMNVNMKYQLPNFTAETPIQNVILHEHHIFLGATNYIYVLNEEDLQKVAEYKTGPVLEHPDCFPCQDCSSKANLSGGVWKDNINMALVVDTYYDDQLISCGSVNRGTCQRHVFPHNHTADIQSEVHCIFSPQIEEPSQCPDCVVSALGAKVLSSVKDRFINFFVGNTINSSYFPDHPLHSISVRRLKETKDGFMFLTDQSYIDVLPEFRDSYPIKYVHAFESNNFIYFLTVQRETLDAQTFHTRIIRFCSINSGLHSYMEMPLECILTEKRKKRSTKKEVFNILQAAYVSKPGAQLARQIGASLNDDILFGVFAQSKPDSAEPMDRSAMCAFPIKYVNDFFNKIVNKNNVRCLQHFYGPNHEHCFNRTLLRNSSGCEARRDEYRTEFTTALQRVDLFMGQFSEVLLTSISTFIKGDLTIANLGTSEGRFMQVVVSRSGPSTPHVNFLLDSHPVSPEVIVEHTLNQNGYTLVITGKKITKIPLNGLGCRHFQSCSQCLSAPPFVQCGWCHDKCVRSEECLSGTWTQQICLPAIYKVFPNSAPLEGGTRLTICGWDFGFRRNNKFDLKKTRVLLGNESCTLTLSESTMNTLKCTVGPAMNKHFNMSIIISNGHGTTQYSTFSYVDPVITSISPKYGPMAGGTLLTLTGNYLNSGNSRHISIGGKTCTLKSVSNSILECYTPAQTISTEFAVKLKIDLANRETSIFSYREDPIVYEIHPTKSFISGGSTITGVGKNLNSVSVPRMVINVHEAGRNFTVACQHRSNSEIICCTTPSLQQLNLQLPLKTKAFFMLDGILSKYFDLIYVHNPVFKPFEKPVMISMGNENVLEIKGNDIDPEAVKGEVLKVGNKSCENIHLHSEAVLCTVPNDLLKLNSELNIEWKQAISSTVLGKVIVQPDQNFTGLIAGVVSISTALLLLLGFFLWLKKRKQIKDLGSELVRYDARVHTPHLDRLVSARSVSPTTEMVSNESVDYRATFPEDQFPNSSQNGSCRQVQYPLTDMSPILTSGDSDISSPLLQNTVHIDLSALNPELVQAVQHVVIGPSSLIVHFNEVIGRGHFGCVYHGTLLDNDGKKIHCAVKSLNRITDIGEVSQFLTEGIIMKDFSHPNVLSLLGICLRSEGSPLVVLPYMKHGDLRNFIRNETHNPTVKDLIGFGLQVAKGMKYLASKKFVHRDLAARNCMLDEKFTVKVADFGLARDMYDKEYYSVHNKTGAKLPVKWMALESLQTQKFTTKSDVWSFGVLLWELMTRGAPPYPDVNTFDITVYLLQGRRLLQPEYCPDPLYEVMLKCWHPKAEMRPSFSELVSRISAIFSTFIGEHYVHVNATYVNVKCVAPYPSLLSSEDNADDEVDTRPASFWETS
Procedure: as §1, §2
GTL-16 c-Met autophosphorylation measured by AlphaScreen® detection: the human MET-amplified gastric cancer cells GTL-16 were plated in 384-well plates at a density of 10′000 cells in 20 ul complete growth medium (DMEM high glucose supplemented with 10% (v/v) heat inactivated fetal calf serum and of 1 mM sodium pyruvate) and were incubated at […]/5% CO2/95% humidity for 20 h. The cells were washed and the 30 ul assay buffer (DMEM high glucose, 1 mM sodium pyruvate, 0.1% bovine serum albumine) was added. Compounds were diluted in 384-well compound plates to obtain 8-point serial dilutions for 40 test compounds in 90% DMSO, as well as a reference compound plus 16 high- and 16 low (inhibited) controls. These compound plates were prediluted 1:200 in assay buffer into a compound predilution plate and 10 ul of prediluted compound solution were transferred to the cell plate using a 384-well pipettor, resulting in a final DMSO concentration of 0.11%. Cells were incubated for 1 h at […]/5% CO2/95% humidity. The supernatant was removed, the cells were lysed in 25 ul of RIPA [radio immuno precipitation assay] lysis buffer supplemented with 2 mM sodium vanadate and a protease inhibitor cocktail, and cell plates were stored at −80° C.
For detection of p-c-Met, an AlphaScreen®-based assay was used. AlphaScreen® (Amplified Luminescent Proximity Homogeneous Assay, ALPHA, Perkin Elmer, U.S.A) is a non-radioactive bead-based proximity assay technology to study biomolecular interactions in a homogenous microtiter plate format. This technique has been adapted to measure the phosphorylation of endogenous cellular proteins in cell lysates by the use of specific antibody pairs against the total protein and a phospho-specific epitope. 5 ul of cell lysate was transferred to 384-well low volume Proxiplates for detection using a 384-well pipettor. First, 5 ul of a premix of an anti-c-Met antibody (0.25 ug/ml f.c.), a biotinylated PY20 antibody (phosphotyrosine antibody, 0.05 ug/ml f.c.) and AlphaScreen® Protein A-coupled acceptor beads (10 ug/ml f.c.) in RIPA buffer supplemented with 0.25% (v/w) TOP BLOCK, 2 mM sodium vanadate, and a protease inhibitor cocktail and was added, the plate was sealed, and incubated on a plate shaker for 2 hours at room temperature. Second, 2 ul of dilution buffer containing AlphaScreen® Streptavidin-coated donor beads (10 ug/ml f.c.) in RIPA buffer was added, and the plate was incubated on plate shaker as above for a further 2 hours. The plate was read on an AlphaScreen® compatible plate reader, using standard AlphaScreen® settings.

T1 sequence (P08581 969-1390): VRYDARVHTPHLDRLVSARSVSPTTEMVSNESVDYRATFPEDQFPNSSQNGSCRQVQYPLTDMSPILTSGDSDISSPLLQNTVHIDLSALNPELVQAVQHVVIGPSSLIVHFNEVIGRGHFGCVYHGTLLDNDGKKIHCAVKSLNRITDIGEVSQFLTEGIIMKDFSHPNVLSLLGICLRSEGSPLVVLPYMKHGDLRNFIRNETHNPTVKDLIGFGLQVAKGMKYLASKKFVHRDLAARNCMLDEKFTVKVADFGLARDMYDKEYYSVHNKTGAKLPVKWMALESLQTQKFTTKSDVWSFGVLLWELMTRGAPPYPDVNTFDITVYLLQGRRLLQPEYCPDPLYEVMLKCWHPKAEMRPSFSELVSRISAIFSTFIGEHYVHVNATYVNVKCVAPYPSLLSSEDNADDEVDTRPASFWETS

Compound	IC50 [1] [nM]	IC50 [2] [nM]	IC50 (c-Met) [nM]
CC(=O)N1CCN(c2ccc3ncc(Cc4c(F)cc5ncccc5c4F)n3n2)CC1 [Example 34, 1-{4-[3-(5,7-Difluoro-quinolin-6-ylmethyl)-imidazo[1,2-b]pyridazin-6-yl]-piperazin-1-yl}-ethanone]	10	65	7
CC(c1c(F)cc2c(cnn2C)c1F)c1cnc2ccc(N3CCNC(=O)C3)nn12 (racemic) [Example 51]	22	16	8
CC(=O)N1CCN(c2ccc3ncc([C@@H](C)c4c(F)cc5c(cnn5C)c4F)n3n2)CC1 [Example 53, 1-(4-{3-[(S)-1-(4,6-Difluoro-1-methyl-1H-indazol-5-yl)-ethyl]-imidazo[1,2-b]pyridazin-6-yl}-piperazin-1-yl)-ethanone]	5.2	22	4.4
C[C@@H](c1c(F)cc2ncccc2c1F)c1cnc2ccc(N3CCN(C)CC3)nn12 [Example 9, 5,7-Difluoro-6-{(S)-1-[6-(4-methyl-piperazin-1-yl)-imidazo[1,2-b]pyridazin-3-yl]-ethyl}-quinoline]	2.9	10	2.2
O=CN1CCN(c2ccc3ncc(Cc4c(F)cc5ncccc5c4F)n3n2)CC1 [Example 35, 4-[3-(5,7-Difluoro-quinolin-6-ylmethyl)-imidazo[1,2-b]pyridazin-6-yl]-piperazine-1-carbaldehyde]	9.9	45	8
CC1CN(c2ccc3ncc(C(C)c4c(F)cc5ncccc5c4F)n3n2)CC(=O)N1 (racemic) [Example 24, (rac)-4-{3-[1-(5,7-Difluoro-quinolin-6-yl)-ethyl]-imidazo[1,2-b]pyridazin-6-yl}-6-methylpiperazin-2-one]	4	9.8	4
O=C1CN(c2ccc3ncc(Cc4c(F)cc5ncccc5c4F)n3n2)CCN1 [Example 31, 4-[3-(5,7-Difluoro-quinolin-6-ylmethyl)-imidazo[1,2-b]pyridazin-6-yl]-piperazin-2-one]	8.2	15	4.7
CC(c1c(F)cc2c(cnn2C)c1F)c1cnc2ccc(N3CCN(C)C(=O)C3)nn12 (racemic) [Example 49, (rac)-4-(3-(1-(4,6-difluoro-1-methyl-1H-indazol-5-yl)ethyl)imidazo[1,2-b]pyridazin-6-yl)-1-methylpiperazin-2-one]	16	29	6.5
Cn1ncc2c(F)c(Cc3cnc4ccc(N5CCNC(=O)C5)nn34)c(F)cc21 [Example 54, 4-[3-(4,6-Difluoro-1-methyl-1H-indazol-5-ylmethyl)-imidazo[1,2-b]pyridazin-6-yl]-piperazin-2-one]	20	36	< 3
CC(c1cc2cccnc2cc1F)c1cnc2ccc(N3CCNC(=O)C3)nn12 (racemic) [Example 41, (rac)-4-{3-[1-(7-Fluoro-quinolin-6-yl)-ethyl]-imidazo[1,2-b]pyridazin-6-yl}-piperazin-2-one]	23	49	< 3
CC(c1c(F)cc2ncccc2c1F)c1cnc2ccc(N3CCN(C(N)=O)CC3)nn12 (racemic) [Example 15, (rac)-4-{3-[1-(5,7-Difluoro-quinolin-6-yl)-ethyl]-imidazo[1,2-b]pyridazin-6-yl}-piperazine-1-carboxylic acid amide]	5.4	18	8.3
CC(c1cc2cccnc2cc1F)c1cnc2ccc(N3CCN(C)C(=O)C3)nn12 (racemic) [Example 40, (rac)-4-{3-[1-(7-Fluoro-quinolin-6-yl)-ethyl]-imidazo[1,2-b]pyridazin-6-yl}-1-methyl-piperazin-2-one]	39	147	11
O=C1CN(c2ccc3ncc(Cc4ccc5ncccc5c4F)n3n2)CCN1 [Example 44, 4-[3-(5-Fluoro-quinolin-6-ylmethyl)-imidazo[1,2-b]pyridazin-6-yl]-piperazin-2-one]	14	133	31
CC(c1c(F)cc2ncccc2c1F)c1cnc2ccc(N3CCN(c4ccccc4)C(=O)C3)nn12 (racemic) [Example 22, (rac)-4-{3-[1-(5,7-Difluoro-quinolin-6-yl)-ethyl]-imidazo[1,2-b]pyridazin-6-yl}-1-phenylpiperazin-2-one]	14	15	6
CC(c1c(F)cc2ncccc2c1F)c1cnc2ccc(N3CCNC(=O)C3)nn12 (racemic) [Example 3, (rac)-4-{3-[1-(5,7-Difluoro-quinolin-6-yl)-ethyl]-imidazo[1,2-b]pyridazin-6-yl}-piperazin-2-one]	5.2	6	< 3
